Patent US20240116985A1, “STAPLED PEPTIDES AND METHODS THEREOF” (priority 2020, published 2024)
Read-outs that look alike come from different tables or passages of the source.

Tests used:
[1] = target: T1, full-length beta-Catenin (Uniprot ID P35222) (Homo sapiens, UniProt P35222); experiment: Fluorescence polarization IC50 (beta-catenin / 5FAM-TCF4 10-53 competition); assay type: binding; settings: read-out: beta-Catenin FP IC50
T1 construct: 10 nM full-length beta-Catenin (Uniprot ID P35222)
T1 sequence (P35222 1-781): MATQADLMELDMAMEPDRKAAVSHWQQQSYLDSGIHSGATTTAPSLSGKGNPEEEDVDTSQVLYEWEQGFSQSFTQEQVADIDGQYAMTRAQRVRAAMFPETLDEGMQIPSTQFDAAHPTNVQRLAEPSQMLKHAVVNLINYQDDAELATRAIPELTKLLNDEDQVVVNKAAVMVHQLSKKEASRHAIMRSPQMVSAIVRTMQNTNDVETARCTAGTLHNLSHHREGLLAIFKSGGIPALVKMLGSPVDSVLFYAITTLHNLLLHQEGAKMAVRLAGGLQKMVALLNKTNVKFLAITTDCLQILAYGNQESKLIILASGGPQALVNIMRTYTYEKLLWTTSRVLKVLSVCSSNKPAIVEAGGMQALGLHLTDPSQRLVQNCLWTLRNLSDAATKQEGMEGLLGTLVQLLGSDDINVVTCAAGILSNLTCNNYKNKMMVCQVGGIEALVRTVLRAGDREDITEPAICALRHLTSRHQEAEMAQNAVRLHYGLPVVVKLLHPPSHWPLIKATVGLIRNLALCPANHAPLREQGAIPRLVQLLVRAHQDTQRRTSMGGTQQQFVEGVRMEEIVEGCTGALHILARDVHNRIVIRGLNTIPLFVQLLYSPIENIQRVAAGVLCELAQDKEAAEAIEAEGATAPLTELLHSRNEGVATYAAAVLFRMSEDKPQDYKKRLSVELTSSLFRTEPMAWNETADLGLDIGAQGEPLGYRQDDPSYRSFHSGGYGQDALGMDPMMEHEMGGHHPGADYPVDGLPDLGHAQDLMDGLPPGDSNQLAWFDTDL

[2] = target: T2, beta-catenin/TCF4 engagement (Homo sapiens, UniProt P35222); experiment: Nano-BRET target engagement assay (B-cat-Halo & TCF4-Luc in HEK293 cells); assay type: cell-based; settings: read-out: NanoBRET Abs IC50
T2 construct: expressed in transfected cells; host or cells: HEK293
T2 sequence (P35222 1-781): T1 sequence (P35222 1-781)

| SMILES | IC50 [2] | IC50 ([1]; fluorescence polarization) | IC50 [1] |
| --- | --- | --- | --- |
| CC(=O)N1CCC[C@]12CC=CCCCC1(CCCC=CCCCOC(=O)N3CC[C@@](C(=O)N[C@@H](Cc4ccsc4)C(=O)N[C@@H](Cc4csc5ccccc45)C(=O)NC(CCCCNC(=O)c4ccc5c(c4)B(O)OC5)C(N)=O)(C3)NC(=O)[C@H](CC(C)C)NC(=O)[C@H](Cc3ccccc3)NC(=O)[C@H](C)NC(=O)[C@H](C)NC(=O)[C@H](CN(CC(=O)O)CC(F)(F)F)NC(=O)[C@H](CC(=O)O)NC1=O)NC(=O)[C@H](CC(C)(C)C)NC(=O)[C@H](CC(=O)O)NC2=O (stereo partly drawn) [I-2187, Ac-PL3-Asp-Npg-B5-Asp-TfeGA-Ala-Ala-Phe-Leu-PyrS2-3Thi-BztA-BnBoroleK-NH2] | 10800 nM | – | 28 nM |
| CC(=O)N1CCC[C@]12CC=CCCCC1(CCCC=CCCCOC(=O)N3CC[C@@](C(=O)N[C@@H](Cc4ccsc4)C(=O)N[C@@H](Cc4csc5ccccc45)C(=O)N[C@@H](C)C(N)=O)(C3)NC(=O)[C@H](CC(C)C)NC(=O)[C@H](Cc3ccccc3)NC(=O)[C@H](C)NC(=O)[C@H](CC(=O)N(C)C)NC(=O)[C@H](Cc3cccc(C(=O)O)c3)NC(=O)[C@H](CC(=O)O)NC1=O)NC(=O)[C@H](CC(C)(C)C)NC(=O)[C@H](CC(=O)O)NC2=O (stereo partly drawn) [I-2188, Ac-PL3-Asp-Npg-B5-Asp-3COOHF-Me2Asn-Ala-Phe-Leu-PyrS2-3Thi-BztA-Ala-NH2] | 7600 nM | 11 nM | – |
| CCCC[C@@H]1NC(=O)[C@H](Cc2cccc(C(=O)O)c2)NC(=O)[C@H](CC(=O)O)NC(=O)C2(CCCC=CCCCOC(=O)N3CC[C@@](C(=O)N[C@@H](Cc4ccsc4)C(=O)N[C@@H](Cc4csc5ccccc45)C(=O)N[C@H](C(N)=O)C(C)C)(C3)NC(=O)[C@H](CC(C)C)NC(=O)[C@H](Cc3ccccc3)NC(=O)[C@H](C)NC1=O)CCCC=CC[C@]1(CCCN1C(C)=O)C(=O)N[C@@H](CC(=O)O)C(=O)N[C@@H](CC(C)(C)C)C(=O)N2 (stereo partly drawn) [I-2189, Ac-PL3-Asp-Npg-B5-Asp-3COOHF-nLeu-Ala-Phe-Leu-PyrS2-3Thi-BztA-Val-NH2] | 33400 nM | 83 nM | – |
| CC(=O)N1CCC[C@]12CC=CCCCC1(CCCC=CCCCOC(=O)N3CC[C@@](C(=O)N[C@@H](Cc4ccsc4)C(=O)N[C@@H](Cc4csc5ccccc45)C(=O)N[C@@H](CC(C)(C)C)C(N)=O)(C3)NC(=O)[C@H](CC(C)C)NC(=O)[C@H](Cc3ccccc3)NC(=O)[C@H](C)NC(=O)[C@H](CO)NC(=O)[C@H](Cc3cccc(C(=O)O)c3)NC(=O)[C@H](CC(=O)O)NC1=O)NC(=O)[C@H](CC(C)(C)C)NC(=O)[C@H](CC(=O)O)NC2=O (stereo partly drawn) [I-2195, Ac-PL3-Asp-Npg-B5-Asp-3COOHF-Ser-Ala-Phe-Leu-PyrS2-3Thi-BztA-Npg-NH2] | 21000 nM | 62 nM | – |
| CC(=O)N1CCC[C@]12CC=CCCCC1(CCCC=CCCCOC(=O)N3CC[C@@](C(=O)N[C@@H](Cc4ccsc4)C(=O)N[C@@H](Cc4csc5ccccc45)C(=O)N[C@@H](CO)C(N)=O)(C3)NC(=O)[C@H](CC(C)C)NC(=O)[C@H](Cc3ccccc3)NC(=O)[C@H](C)NC(=O)[C@H](C)NC(=O)[C@H](Cc3ccc(F)c(C(=O)O)c3)NC(=O)[C@H](CC(=O)O)NC1=O)NC(=O)[C@H](CC(C)(C)C)NC(=O)[C@H](CC(=O)O)NC2=O (stereo partly drawn) [I-2202, Ac-PL3-Asp-Npg-B5-Asp-4F3COOHF-Ala-Ala-Phe-Leu-PyrS2-3Thi-BztA-Ser-NH2] | 5000 nM | 11 nM | – |
| CC(=O)N1CCC[C@]12CC=CCCCC1(CCCC=CCCCOC(=O)N3CC[C@@](C(=O)N[C@@H](Cc4ccccc4Cl)C(=O)N[C@@H](Cc4csc5ccccc45)C(=O)N[C@@H](CCC(N)=O)C(N)=O)(C3)NC(=O)[C@H](CC(C)C)NC(=O)[C@H](Cc3ccccc3)NC(=O)[C@H](C)NC(=O)[C@H](C)NC(=O)[C@H](Cc3ccc(F)c(C(=O)O)c3)NC(=O)[C@H](CC(=O)O)NC1=O)NC(=O)[C@H](CC(C)(C)C)NC(=O)[C@H](CC(=O)O)NC2=O (stereo partly drawn) [I-2203, Ac-PL3-Asp-Npg-B5-Asp-4F3COOHF-Ala-Ala-Phe-Leu-PyrS2-2C1F-BztA-Gln-NH2] | 2900 nM | 9 nM | – |

The next lines start with results.

| IC50 [2] | IC50 ([1]; fluorescence polarization) | SMILES | IC50 [1] |
| --- | --- | --- | --- |
| 33400 nM | 28 nM | CC(=O)N1CCC[C@]12CC=CCCCC1(CCCC=CCCCOC(=O)N3CC[C@@](C(=O)N[C@@H](Cc4ccsc4)C(=O)N[C@@H](Cc4csc5ccccc45)C(=O)N[C@H](C(N)=O)C(C)C)(C3)NC(=O)[C@H](CC(C)C)NC(=O)[C@H](Cc3ccccc3)NC(=O)[C@H](C)NC(=O)[C@H](CO)NC(=O)[C@H](Cc3cccc(C(=O)O)c3)NC(=O)[C@H](CC(=O)O)NC1=O)NC(=O)[C@H](CC(C)(C)C)NC(=O)[C@H](CC(=O)O)NC2=O (stereo partly drawn) [I-2190, Ac-PL3-Asp-Npg-B5-Asp-3COOHF-Ser-Ala-Phe-Leu-PyrS2-3Thi-BztA-Val-NH2] | – |
| 29500 nM | 16 nM | CC(=O)N1CCC[C@]12CC=CCCCC1(CCCC=CCCCOC(=O)N3CC[C@@](C(=O)N[C@@H](Cc4ccsc4)C(=O)N[C@@H](Cc4csc5ccccc45)C(=O)N[C@H](C(N)=O)C(C)C)(C3)NC(=O)[C@H](CC(C)C)NC(=O)[C@H](Cc3ccccc3)NC(=O)[C@H](C)NC(=O)[C@H](CC(=O)N(C)C)NC(=O)[C@H](Cc3cccc(C(=O)O)c3)NC(=O)[C@H](CC(=O)O)NC1=O)NC(=O)[C@H](CC(C)(C)C)NC(=O)[C@H](CC(=O)O)NC2=O (stereo partly drawn) [I-2191, Ac-PL3-Asp-Npg-B5-Asp-3COOHF-Me2Asn-Ala-Phe-Leu-PyrS2-3Thi-BztA-Val-NH2] | – |
| 16100 nM | 22 nM | CC(=O)N1CCC[C@]12CC=CCCCC1(CCCC=CCCCOC(=O)N3CC[C@@](C(=O)N[C@@H](Cc4ccsc4)C(=O)N[C@@H](Cc4csc5ccccc45)C(=O)N[C@@H](CC(C)(C)C)C(N)=O)(C3)NC(=O)[C@H](CC(C)C)NC(=O)[C@H](Cc3ccccc3)NC(=O)[C@H](C)NC(=O)[C@H](CCC(N)=O)NC(=O)[C@H](Cc3cccc(C(=O)O)c3)NC(=O)[C@H](CC(=O)O)NC1=O)NC(=O)[C@H](CC(C)(C)C)NC(=O)[C@H](CC(=O)O)NC2=O (stereo partly drawn) [I-2192, Ac-PL3-Asp-Npg-B5-Asp-3COOHF-Gln-Ala-Phe-Leu-PyrS2-3Thi-BztA-Npg-NH2] | – |
| 39900 nM | 164 nM | CCCC[C@@H]1NC(=O)[C@H](Cc2cccc(C(=O)O)c2)NC(=O)[C@H](CC(=O)O)NC(=O)C2(CCCC=CCCCOC(=O)N3CC[C@@](C(=O)N[C@@H](Cc4ccsc4)C(=O)N[C@@H](Cc4csc5ccccc45)C(=O)N[C@@H](CC(C)(C)C)C(N)=O)(C3)NC(=O)[C@H](CC(C)C)NC(=O)[C@H](Cc3ccccc3)NC(=O)[C@H](C)NC1=O)CCCC=CC[C@]1(CCCN1C(C)=O)C(=O)N[C@@H](CC(=O)O)C(=O)N[C@@H](CC(C)(C)C)C(=O)N2 (stereo partly drawn) [I-2193, Ac-PL3-Asp-Npg-B5-Asp-3COOHF-nLeu-Ala-Phe-Leu-PyrS2-3Thi-BztA-Npg-NH2] | – |
| 8800 nM | 91 nM | CC(=O)N1CCC[C@]12CC=CCCCC1(CCCC=CCCCOC(=O)N3CC[C@@](C(=O)N[C@@H](Cc4ccsc4)C(=O)N[C@@H](Cc4csc5ccccc45)C(=O)N[C@@H](CC(C)(C)C)C(N)=O)(C3)NC(=O)[C@H](CC(C)C)NC(=O)[C@H](Cc3ccccc3)NC(=O)[C@H](C)NC(=O)C(C)(C)NC(=O)[C@H](Cc3cccc(C(=O)O)c3)NC(=O)[C@H](CC(=O)O)NC1=O)NC(=O)[C@H](CC(C)(C)C)NC(=O)[C@H](CC(=O)O)NC2=O (stereo partly drawn) [I-2194, Ac-PL3-Asp-Npg-B5-Asp-3COOHF-Aib-Ala-Phe-Leu-PyrS2-3Thi-BztA-Npg-NH2] | – |
| 3300 nM | 10 nM | CC(=O)N1CCC[C@]12CC=CCCCC1(CCCC=CCCCOC(=O)N3CC[C@@](C(=O)N[C@@H](Cc4ccccc4Cl)C(=O)N[C@@H](Cc4csc5ccccc45)C(=O)N[C@@H](CCC(N)=O)C(N)=O)(C3)NC(=O)[C@H](CC(C)C)NC(=O)[C@H](Cc3ccccc3)NC(=O)[C@H](C)NC(=O)[C@H](C)NC(=O)[C@H](Cc3ccc(F)c(C(=O)O)c3)NC(=O)[C@H](CC(=O)O)NC1=O)NC(=O)[C@H](CC(C)(C)C)NC(=O)[C@H](CC(=O)O)NC2=O (stereo partly drawn) [I-2204, Ac-PL3-Asp-Npg-B5-Asp-4F3COOHF-Ala-Ala-Phe-Leu-PyrS2-2C1F-BztA-Gln-NH2] | – |
| 3200 nM | 18 nM | CC(=O)N1CCC[C@]12CC=CCCCC1(CCCC=CCCCOC(=O)N3CC[C@@](C(=O)N[C@@H](Cc4ccccc4Cl)C(=O)N[C@@H](Cc4csc5ccccc45)C(=O)N[C@@H](CO)C(N)=O)(C3)NC(=O)[C@H](CC(C)C)NC(=O)[C@H](Cc3ccccc3)NC(=O)[C@H](C)NC(=O)[C@H](C)NC(=O)[C@H](Cc3ccc(F)c(C(=O)O)c3)NC(=O)[C@H](CC(=O)O)NC1=O)NC(=O)[C@H](CC(C)(C)C)NC(=O)[C@H](CC(=O)O)NC2=O (stereo partly drawn) [I-2205, Ac-PL3-Asp-Npg-B5-Asp-4F3COOHF-Ala-Ala-Phe-Leu-PyrS2-2C1F-BztA-Ser-NH2] | – |
